Experimental data as given in US20130178609A1, “MODULAR CONSTRUCTION OF LIPOPHOSPHOLIPIDS” (Centre National de la Recherche Scientifique - CNRS, priority 2010, published 2013).
Where “and” joins values, the source holds several entries; their conditions need not be identical. Identical values can stand only once.

Assay: Fluorescence excitation/emission maxima and molar absorption of the fluorescent phospholipids in EtOH
Format: physicochemical

CCCCCCCC/C=C\CCCCCCCCOP(=O)(NCc1cn(-c2cc3ccc(O)cc3oc2=O)nn1)OCCCCCCCC/C=C\CCCCCCCC [Compound 4a]
λmax,em: 425 nm and 479 nm | λmax,exc: 349 nm and 412 nm
